Laboratory results: article PMC10733197, “Utilization of Rosuvastatin and Endogenous Biomarkers in Evaluating the Impact of Ritlecitinib on BCRP, OATP1B1, and OAT3 Transporter Activity” (Pharmaceutical Research, 2023)
Like-named read-outs stand apart in the source and are kept apart here.

Assays:
OAT1/3 [1] = conditions: cited from earlier work; for PDA AUC ratio Observed: ref 1 (Rodrigues AD 2023)
[2] = cited from earlier work
OAT3 = target: T1, OAT3 (Homo sapiens, UniProt Q8TCC7); conditions: estrone 3-sulfate 0.1 µM; HEK293; existing in vitro data; cited from earlier work
T1 construct: expressed in transfected cells; host or cells: HEK293
T1 sequence (Q8TCC7 1-542): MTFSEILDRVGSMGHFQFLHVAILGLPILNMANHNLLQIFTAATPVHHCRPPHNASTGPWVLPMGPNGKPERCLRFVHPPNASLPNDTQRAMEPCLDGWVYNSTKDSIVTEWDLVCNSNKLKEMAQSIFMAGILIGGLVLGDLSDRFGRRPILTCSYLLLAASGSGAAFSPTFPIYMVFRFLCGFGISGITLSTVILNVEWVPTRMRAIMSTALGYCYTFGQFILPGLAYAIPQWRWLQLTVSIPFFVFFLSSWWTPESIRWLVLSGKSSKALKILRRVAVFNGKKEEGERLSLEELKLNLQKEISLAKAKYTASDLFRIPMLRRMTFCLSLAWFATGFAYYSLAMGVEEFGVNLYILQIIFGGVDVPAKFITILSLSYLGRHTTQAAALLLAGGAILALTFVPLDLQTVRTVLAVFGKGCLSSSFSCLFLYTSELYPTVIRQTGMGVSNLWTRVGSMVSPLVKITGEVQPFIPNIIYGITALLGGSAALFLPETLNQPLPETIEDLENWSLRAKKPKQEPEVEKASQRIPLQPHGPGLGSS

OAT1 = target: T2, OAT1 (Homo sapiens, UniProt Q4U2R8); conditions: cited from earlier work
T2 sequence (Q4U2R8 1-563): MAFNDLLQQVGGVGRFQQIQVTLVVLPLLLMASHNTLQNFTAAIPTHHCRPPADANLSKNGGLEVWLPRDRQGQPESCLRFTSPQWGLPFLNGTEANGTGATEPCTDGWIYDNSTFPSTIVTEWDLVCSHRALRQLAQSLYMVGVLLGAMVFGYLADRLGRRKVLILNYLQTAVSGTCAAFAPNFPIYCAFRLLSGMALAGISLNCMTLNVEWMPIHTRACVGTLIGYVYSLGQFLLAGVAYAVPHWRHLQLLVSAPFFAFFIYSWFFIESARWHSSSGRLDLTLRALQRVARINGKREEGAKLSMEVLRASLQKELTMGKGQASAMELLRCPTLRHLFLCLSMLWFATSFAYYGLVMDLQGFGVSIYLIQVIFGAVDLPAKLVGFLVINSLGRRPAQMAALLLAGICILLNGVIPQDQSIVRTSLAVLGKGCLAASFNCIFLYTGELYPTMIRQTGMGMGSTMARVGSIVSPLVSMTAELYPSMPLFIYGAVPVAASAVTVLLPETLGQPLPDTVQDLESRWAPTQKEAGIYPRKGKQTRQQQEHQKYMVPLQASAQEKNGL

clinical = conditions: human, in vivo, 10 mg
Experimental: Blood and urine samples were collected at prespecified timepoints. […] Each participant emptied their bladder just prior to dosing. Plasma rosuvastatin was measured using a validated UPLC-MS/MS assay, in compliance with Pfizer standard operating procedures. Samples were thawed at room temperature and vortexed. […] Samples were then placed in a methanol/ dry ice bath for 5 min. […] Dry residues were reconstituted with 200 μL of reconstitution solution (mobile phase A). After vortexing, all tubes were centrifuged at 3000 rpm for 5 min at 4 °C, and 150 μL of the reconstituted samples were transferred into the deep round well microplates and sealed by aluminum foil at 165 °C. […] Mobile phase A was Milli-Q Type Water/methanol, ammonium acetate 2 mM and mobile phase B was acetonitrile. The monitored ion transitions were m/z 483.3 → 258.2; […] The validated rosuvastatin concentration calibration range was 20 to 25000 pg/mL. Urine rosuvastatin was measured using a validated HPLC-MS/MS assay, in compliance with Pfizer standard operating procedures. […] Mobile phase A was Milli-Q® type water/methanol, ammonium acetate 2 mM and mobile phase B was acetonitrile. The monitored ion transitions were m/z 483.3 → 258.2; […] The validated rosuvastatin concentration calibration range was 5 to 2000 ng/mL. […] Samples below the lower limit of quantitation were set to zero for the PK analysis. Actual sample collection times were used for the PK analysis. Natural log transformed area under the plasma concentration-time profile from time 0 extrapolated to infinity (AUCinf), maximum plasma concentration (Cmax), and apparent renal clearance (CLr) were analyzed using a mixed effect model with treatment as a fixed effect and participant as a random effect (SAS version 9.4; SAS Institute, Cary, NC, USA). […] Rosuvastatin alone was the reference treatment, while the rosuvastatin coadministered with ritlecitinib was the Test treatment.

[3] = set-up: method as in PMID 14693307; conditions: cited from earlier work
[4] = Safety and tolerability in the clinical DDI study
Experimental: This was a Phase 1, 2-period fixed-sequence, multiple-dose, open-label study of the effect of ritlecitinib on the pharmacokinetics and renal clearance of a single, oral dose of rosuvastatin in healthy participants (Fig. 1). The safety and tolerability of rosuvastatin when coadministered with ritlecitinib was also evaluated.
In Period 1 on Day 1, following an overnight fast of at least 10 h, participants received a single oral administration of rosuvastatin 10 mg tablet. Period 1 was immediately followed by Period 2 with no washout. In Period 2 (coadministration), participants received oral ritlecitinib 200 mg once daily (QD) under non-fasting conditions for 7 days. On the morning of Day 8, a single dose of rosuvastatin 10 mg tablet was administered orally within approximately 5 min after administration of a ritlecitinib 200 mg dose under fasting conditions. On Days 9 and 10, participants continued to receive oral ritlecitinib 200 mg QD under non-fasting conditions.

OATP2B1 = test system: OATP2B1; set-up: method as in PMID 27737931; conditions: rosuvastatin coadministered with ronacaleret, an OATP2B1 inhibitor; cited from earlier work
OCT1 = test system: OCT1; set-up: method as in PMID 36807251; conditions: cited from earlier work
OAT1/3 [5] = test: Plasma PDA as endogenous biomarker of OAT1/3 in clinical DDI studies; format: in vivo, human; conditions: for AUC24 / Cmax: geometric mean (%CV)
Experimental: Blood and urine samples were collected at prespecified timepoints. Rosuvastatin plasma samples (~ 6 mL) were collected predose and at 0.5, 1, 2, 3, 4, 5, 6, 8, 10, 12, 16, 24, 36, 48, and 72 h postdose. CP-I and PDA plasma samples (~ 6 mL) were collected predose and at 0.5, 1, 2, 3, 4, 5, 6, 8, 10, 12, 16, and 24 h post rosuvastatin dosing. Rosuvastatin urine samples were collected at predose, 0–6 h, 6–12, 12–24, 24–48, and 48–72 h postdose. Each participant emptied their bladder just prior to dosing.
Quantification of PDA was conducted by mass spectrometry according to Towner et al.. […] Mass spectrometry detection of the analytes were achieved using a SCIEX API QTrap 5500 mass spectrometry and a Turbo V electrospray ionization source in negative ion mode. Plasma samples were prepared by protein precipitation by spiking 50 μL of sample with 200 μL of 300 ng/mL 4-aminosalicylic acid internal standard. After vortexing/centrifugation, 200 μL of supernatant was transferred and 1 μL injections were analyzed. A 1/x^2 weighted linear regression was used to quantitate sample concentrations.
The PK parameters for rosuvastatin, CP-I and PDA were calculated for each participant and each treatment using Pfizer’s internally validated electronic noncompartmental analysis software (eNCA) version 2.4.4. Samples below the lower limit of quantitation were set to zero for the PK analysis. Actual sample collection times were used for the PK analysis.
Natural log transformed area under the plasma concentration-time profile from time 0 extrapolated to infinity (AUCinf), maximum plasma concentration (Cmax), and apparent renal clearance (CLr) were analyzed using a mixed effect model with treatment as a fixed effect and participant as a random effect (SAS version 9.4; SAS Institute, Cary, NC, USA). Estimates of the adjusted mean differences (Test-Reference) and corresponding 90% CIs were obtained from the model. The adjusted mean difference and 90% CIs for the differences were exponentiated to provide estimates of the ratio of adjusted geometric means (Test/Reference) and 90% CIs for the ratios. Rosuvastatin alone was the reference treatment, while the rosuvastatin coadministered with ritlecitinib was the Test treatment.

[6] = rosuvastatin 10 mg single dose (without ritlecitinib) or ritlecitinib 200 mg QD, 12 healthy participants
[7] = rosuvastatin 10 mg + ritlecitinib 200 mg QD
[8] = with vs without ritlecitinib 200 mg QD

CCc1nc(N)nc(N)c1-c1ccc(Cl)cc1 [Pyrimethamine]
PDA AUC ratio Observed (OAT1/3 [1]; inhibitor dose 10 mg): 0.7 | PDA AUC ratio Observed (OAT1/3 [1]; inhibitor dose 25 mg): 0.6 | PDA AUC ratio Observed (OAT1/3 [1]; inhibitor dose 75 mg): 0.6 | Cmax,u ([2]; inhibitor dose 10 mg): 40 nM | Cmax,u ([2]; inhibitor dose 25 mg): 110 nM | Cmax,u ([2]; inhibitor dose 75 mg): 370 nM | IC50 (OAT3): 16 µM | IC50 (OAT1): 224 µM

CC(C)c1nc(N(C)S(C)(=O)=O)nc(-c2ccc(F)cc2)c1/C=C/[C@@H](O)C[C@@H](O)CC(=O)O [Rosuvastatin, rosuvastatin]
AUC(0-inf) (clinical): 43.9 ng·h/mL | CL renal (clinical): 218 mL/min | CL/F (clinical): 228.0 (44) L/hr | Cmax (clinical): 4.5 ng/mL | Tmax (clinical): 4.01 h | Vd/F (clinical): 6020 L | half-life (clinical): 19.2 ± 7.02 h | excreted in urine [3]: ≤ 10% | TEAEs of moderate severity ([4]; back pain, single dose of rosuvastatin 10 mg): 1 | number of treatment-emergent adverse events (TEAEs) [4, 6]: 4 | participants with TEAEs [4, 6]: 4 | TEAEs considered treatment-related by the investigator ([4]; rosuvastatin 10 mg single dose or ritlecitinib 200 mg QD): all of which were considered treatment-related | decrease in AUCinf exposure (OATP2B1): ~50%

CNS(=O)(=O)Cc1ccc2[nH]cc(CCN(C)C)c2c1 [sumatriptan]
increase in AUCinf (OCT1; sumatriptan with ritlecitinib coadministration, due to OCT1 inhibition): 30% | decrease in Cmax (OCT1; sumatriptan with ritlecitinib coadministration): 13% | exposure increase (OCT1; sumatriptan, liver OCT1 inhibition by ritlecitinib and M2): up to 50%

Cc1ncc(CO)c(C(=O)O)c1O [PDA, pyridoxic acid]
increase in plasma AUC (OAT1/3 [1]; plasma PDA in the presence of probenecid): 3.1 fold | AUC24 (OAT1/3 [5]; [7]): 69.47 (33) | Cmax (OAT1/3 [5]; [7]): 3.765 (28) | AUC24 (OAT1/3 [5]; rosuvastatin 10 mg alone): 67.34 (30) | Cmax (OAT1/3 [5]; rosuvastatin 10 mg alone): 3.664 (29) | AUC24 % Ratio (Test/Reference) of Adjusted Geometric Means (90% CI) (OAT1/3 [5]; [8]): 103.16 (87.65, 121.42) % | Cmax % Ratio (Test/Reference) of Adjusted Geometric Means (90% CI) (OAT1/3 [5]; [8]): 102.76 (87.58, 120.58) %
